Results reported in patent US20030036049A1, “Optical method for testing sensitivity of cells” (MEDIS EL LTD., priority 2001, published 2003).

Assays:
[1] = tested on: T47D human breast cancer cells; test: Viable cell count on hemocytometer with trypan blue exclusion; type: cell-based; details: low and high doses, 24, 48, 72 hours, FIG. 2 panel 181
Procedure: (§1) Cell culture: T80 and T47D human breast cancer cells were routinely cultured in DMEM supplemented with 10% fetal calf serum (FCS) (Biological Industries, Beit Haemek, Israel), 4 mM glutamine (Biological Ind.), 100 u/ml penicillin, 0.1 milligram/milliliter streptomycin, 12.5 units/milliliter nystatin (Biological Ind.) and 0.2 units/milliliter insulin (Lilly, Fegersheim, France).
(§2) About 2×10^5 cells were plated on 6 well-plates and left overnight to adhere. Two different concentrations of different drugs were added for a period of 24, 48 and 72 hours and then cells were harvested with trypsin, centrifuged, and resuspended in culture medium until staining.
(§3) Navelbine and 5-Fluorouracil (5FU) where added at low and high doses to T80 and T47D cells respectively for 24, 48, and 72 hours. The cells were counted on a hemocytometer, using trypan blue for exclusion of dead cells, for the purpose of Electro-optical scanner -independent estimation of drug efficacy.

[2] = tested on: T47D human breast cancer cells; test: Rh123 fluorescence intensity, Electro-optical scanner (CellScan); type: cell-based
Procedure: as §2
(§4) Cell staining and loading: Three samples were prepared for each treatment at a specific time point and stained each with a different dye: fluorescein diacetate (FDA), rhodamine 123 (Rh123), and acridine orange (AO). […]
Rh123 (1 microgram/milliliter final concentration) was added to cells suspended in culture medium for 30 minutes at 37° C. Then the cells were washed twice with cold PBS supplemented with Mg^+2 and Ca^+2, loaded on the cell carrier and fluorescence intensity and polarization were measured by an Argon laser-based Electro-optical scanner. […]
(§5) For the excitation of FDA-stained cells an He/Cd laser was utilized (442 nm, excitation power of 4.5 microwatt) and emission measured at 527 nm. For the detection of AO and Rh123-stained cells an Argon laser was utilized (488 nm, excitation power of 15 microwatt) and emission measured at 530 nm.
(§6) The fluorescence emission of an area containing 20×20 wells was measured using a preset photon counting mode in which the same number of photons is counted for each cell (10,000), canceling differences in precision from strong and weak-emitting cells. […]

[3] = tested on: T47D human breast cancer cells; test: FDA fluorescence polarization, Electro-optical scanner (CellScan); type: cell-based; details: FIG. 5 panel 191
Procedure: as §2, §4
(§7) Cells in suspension were stained for 5 minutes with FDA at a final concentration of 2.4 micromolar. The cells were then loaded on the cell carrier, washed twice with PBS supplemented with Mg^+2 and Ca^+2, and fluorescence intensity and polarization were measured by an He/Cd laser-based CellScan™ electro-optical scanner. […]
as §5, §6

[4] = tested on: T47D human breast cancer cells; test: AO fluorescence intensity, Electro-optical scanner (CellScan); type: cell-based; details: FIG. 6 panels 195-197
Procedure: as §2
(§8) Cell staining and loading: Three samples were prepared for each treatment at a specific time point and stained each with a different dye: fluorescein diacetate (FDA), rhodamine 123 (Rh123), and acridine orange (AO).
(§9) AO is usually used as a direct probe for nucleic acids in fixed or permeabilized cells. When used under appropriate conditions of concentration and pH it gives bright green fluorescence when bound to double-stranded DNA and red deep fluorescence when bound to single strand RNA and can serve for estimation of cellular DNA content and transcriptional activity. AO was added directly to the cell carrier loaded with cells for 5 minutes at a final concentration of 10 microgram/milliliter, washed twice directly on the grid and measured on an Argon laser-based Electro-optical scanner. […]
(§10) For the excitation of FDA-stained cells an He/Cd laser was utilized (442 nm, excitation power of 4.5 microwatt) and emission measured at 527 nm. For the detection of AO and Rh123-stained cells an Argon laser was utilized (488 nm, excitation power of 15 microwatt) and emission measured at 530 nm. […]

[5] = tested on: T80 human breast cancer cells; test: Viable cell count on hemocytometer with trypan blue exclusion; type: cell-based; details: low and high doses, 24, 48, 72 hours, FIG. 2 panel 180
Procedure: as §1, §2, §3

[6] = tested on: T80 human breast cancer cells; test: FDA fluorescence polarization, Electro-optical scanner (CellScan); type: cell-based; details: FIG. 5 panel 190
Procedure: as §2, §4, §7, §5, §6

[7] = tested on: T80 human breast cancer cells; test: AO fluorescence intensity, Electro-optical scanner (CellScan); type: cell-based; details: one day after starting treatment, FIG. 6 panels 192-194
Procedure: as §2, §8, §9, §10

[8] = tested on: T80 human breast cancer cells; test: Rh123 fluorescence intensity, Electro-optical scanner (CellScan)

| SMILES | effect on number of viable cells counted (trypan blue exclusion) [1] | change in Rh123 fluorescence intensity versus control untreated cells ([2]; FIG. 3 panel 183) | change of mean fluorescence intensity of Rh123 stained cells, measured one-cell-at-a-time ([2]; FIG. 4 panels 187-189) | change of mean polarization of FDA fluorescence [3] | change of mean fluorescence intensity of AO stained cells, measured one-cell-at-a-time [4] | effect on number of viable cells counted (trypan blue exclusion) [5] | change of mean polarization of FDA fluorescence [6] | change of mean fluorescence intensity of AO stained cells, measured one-cell-at-a-time [7] | change in Rh123 fluorescence intensity versus control untreated cells ([8]; FIG. 3 panel 182) | change of mean fluorescence intensity of Rh123 stained cells, measured one-cell-at-a-time ([8]; one day after starting treatment, FIG. 4 panels 184-186) |
| --- | --- | --- | --- | --- | --- | --- | --- | --- | --- | --- |
| O=c1[nH]cc(F)c(=O)[nH]1 [5FU, 5-Fluorouracil] | mild and not significant effects | no significant change in fluorescence intensity | no significant change of mean fluorescence intensity | no significant change of mean fluorescence polarization | no significant change of mean fluorescence intensity | – | – | – | – | – |
| CCC1=C[C@@H]2CN(C1)Cc1c([nH]c3ccccc13)[C@@](C(=O)OC)(c1cc3c(cc1OC)N(C)[C@H]1[C@@](O)(C(=O)OC)[C@H](OC(C)=O)[C@]4(CC)C=CCN5CC[C@]31[C@@H]54)C2 [Navelbine] | – | – | – | – | – | cytotoxic effect | increase of mean polarization | decrease of mean fluorescence intensity | decrease in Rh123 fluorescence intensity is obvious and markedly significant | decrease of mean fluorescence intensity |
